Test results reported in publication PMC8587863, “Discovery of Novel Delta Opioid Receptor (DOR) Inverse Agonist and Irreversible (Non-Competitive) Antagonists” (Molecules, 2021).

Experiments:
[1] = biological target: T1, human DOR (delta opioid receptor) (Homo sapiens, UniProt P41143); test: […]-GTPgammaS coupling, membranes; format: biochemical; settings: antagonist mode against SNC80 curve; 30 °C, 1 h, 40 uM GDP; proposed covalent / irreversible
T1 construct: gene OPRD1; full-length receptor expressed in CHO-K1 cells

[2] = biological target: T1, human DOR (delta opioid receptor); test: competition radioligand binding, 3H-diprenorphine, membranes
[3] = biological target: T2, human kappa opioid receptor (KOR) (Homo sapiens, UniProt P41145); test: as above
T2 construct: gene OPRK1; full-length receptor expressed in CHO cells; membranes

[4] = biological target: T1, human DOR (delta opioid receptor); test: cAMP accumulation, live DOR-CHO cells; format: cell-based
[5] = biological target: T3, human mu opioid receptor (MOR) (Homo sapiens, UniProt P35372); test: competition radioligand binding, 3H-diprenorphine, membranes; settings: room temperature, 1 h, one-site fit; unreliable
T3 construct: gene OPRM1; full-length receptor expressed in CHO cells; membranes

With Oc1ccc2c3c1O[C@H]1c4[nH]c5ccc(/C=C/c6ccccn6)cc5c4C[C@@]4(O)[C@@H](C2)N(CC2CC2)CC[C@]314 [SRI-9342, (4bS,8R,8aS,14bR)-7-(Cyclopropylmethyl)-11-((E)-2-(pyridin-2-yl)vinyl)-5,6,7,8,14,14b-hexahydro-4,8-methanobenzofuro [2,3-a]pyrido[4,3-b]carbazole-1,8a(9H)-diol] the “% SNC80 efficacy (EMAX) at 1 nM” value [1] was 84%.
For O=C(C1CC1)N1CC[C@]23c4c5ccc(O)c4O[C@H]2c2ncc(-c4ccc(Cl)cc4)cc2C[C@@]3(O)[C@H]1C5 [SRI-45128, ((4bS,8R,8aS,13bR)-11-(4-Chlorophenyl)-1,8a-dihydroxy-5,6,8,8a,9,13b-hexahydro-7H-4,8-methanobenzofuro[3,2-h]pyrido[3,4-g]quinolin-7-yl)(cyclopropyl)methanone], the Ki [2] was 24 ± 2 nM, the Ki [3] was 2500 ± 510 nM and the EC50 [4] was 770 nM. For the same molecule, the KI [5] was > 3,333 nM.
Molecule O=C(C1CC1)N1CC[C@]23c4c5ccc(O)c4O[C@H]2c2[nH]c4ccccc4c2C[C@@]3(O)[C@H]1C5 [SYK-623, Cyclopropyl((4bS,8R,8aS,14bR)-1,8a-dihydroxy-5,6,8a,9,14,14b-hexahydro-4,8-methanobenzofuro[2,3−a]pyrido [4,3−b]carbazol-7(8H)-yl)methanone] has a Ki [2] of 11 ± 1 nM, a Ki [3] of 2000 ± 290 nM and an EC50 [4] of 265 nM. The KI [5] was > 3,333 nM.
